Organism: Rattus norvegicus
Test: DrugMatrix - Regimen: Daily Repeat
Format: toxicity, organism-based, Sprague-Dawley
Parameters: regimen Daily Repeat, gender Male, age 6-8 weeks
Conditions: in vivo, po, route oral GAVAGE, vehicle .5 % CMC; for ABSOLUTE BASOPHIL / ABSOLUTE EOSINOPHIL / ABSOLUTE LYMPHOCYTE / ABSOLUTE MONOCYTE / ABSOLUTE SEGMENTED NEUTROPHIL / BASOPHIL / EOSINOPHIL / ERYTHROCYTE COUNT / HEMATOCRIT / HEMOGLOBIN / LEUKOCYTE COUNT / LYMPHOCYTE / MEAN CORPUSCULAR HEMOGLOBIN / MEAN CORPUSCULAR HEMOGLOBIN CONCENTRATION / MEAN CORPUSCULAR VOLUME / MONOCYTE / NEUTROPHIL / NUCLEATED RED BLOOD CELLS / PLATELET COUNT: tissue Blood; for ALANINE AMINOTRANSFERASE / ALBUMIN / ALKALINE PHOSPHATASE / ASPARTATE AMINOTRANSFERASE / BLOOD UREA NITROGEN / CARBON DIOXIDE / CHLORIDE / CHOLESTEROL / CREATINE PHOSPHOKINASE / CREATININE / GLUCOSE / LACTATE DEHYDROGENASE / LIPASE / PHOSPHORUS / POTASSIUM / SODIUM / TOTAL BILIRUBIN / TOTAL PROTEIN / URIC ACID: tissue Plasma
[1] = 60 mg/kg, 72 h, dose level Low, time 3 day
[2] = 60 mg/kg, 120 h, dose level Low, time 5 day
[3] = 1200 mg/kg, 72 h, dose level High, time 3 day
[4] = 1200 mg/kg, 120 h, dose level High, time 5 day

SMILES: CCS(=O)(=O)CCn1c([N+](=O)[O-])cnc1C [TINIDAZOLE]
- ABSOLUTE BASOPHIL [1]: 0 CELLS/uL
- ABSOLUTE EOSINOPHIL [1]: 339 CELLS/uL
- ABSOLUTE LYMPHOCYTE [1]: 11000.67 CELLS/uL
- ABSOLUTE MONOCYTE [1]: 171.33 CELLS/uL
- ABSOLUTE SEGMENTED NEUTROPHIL [1]: 989 CELLS/uL
- BASOPHIL [1]: 0%
- EOSINOPHIL [1]: 2.67%
- ERYTHROCYTE COUNT [1]: 5.79 x10E6/uL
- HEMATOCRIT [1]: 34.93%
- HEMOGLOBIN [1]: 13.13 G/DL
- LEUKOCYTE COUNT [1]: 12.5 x10E3/uL
- LYMPHOCYTE [1]: 88%
- MEAN CORPUSCULAR HEMOGLOBIN [1]: 22.67 pg
- MEAN CORPUSCULAR HEMOGLOBIN CONCENTRATION [1]: 37.67 G/DL
- MEAN CORPUSCULAR VOLUME [1]: 60.2 fL
- MONOCYTE [1]: 1.33%
- NEUTROPHIL [1]: 8%
- NUCLEATED RED BLOOD CELLS [1]: 0 /100WBC
- PLATELET COUNT [1]: 1415.67 x10E3/uL
- ALANINE AMINOTRANSFERASE [1]: 51.33 u/L
- ALBUMIN [1]: 4.33 G/DL
- ALKALINE PHOSPHATASE [1]: 361.33 u/L
- ASPARTATE AMINOTRANSFERASE [1]: 96.67 u/L
- BLOOD UREA NITROGEN [1]: 14.67 mg/dL
- CARBON DIOXIDE [1]: 26 mmol/L
- CHLORIDE [1]: 105 MEQ/L
- CHOLESTEROL [1]: 71 mg/dL
- CREATINE PHOSPHOKINASE [1]: 896 u/L
- CREATININE [1]: 0.17 mg/dL
- GLUCOSE [1]: 168 mg/dL
- LACTATE DEHYDROGENASE [1]: 108.33 u/L
- LIPASE [1]: 9 u/L
- PHOSPHORUS [1]: 14.2 mg/dL
- POTASSIUM [1]: 6.01 MEQ/L
- SODIUM [1]: 145.6 MEQ/L
- TOTAL BILIRUBIN [1]: 0.23 mg/dL
- TOTAL PROTEIN [1]: 5.87 G/DL
- URIC ACID [1]: 2.47 mg/dL
- ABSOLUTE BASOPHIL [2]: 0 CELLS/uL
- ABSOLUTE EOSINOPHIL [2]: 103.33 CELLS/uL
- ABSOLUTE LYMPHOCYTE [2]: 13904.67 CELLS/uL
- ABSOLUTE MONOCYTE [2]: 205.33 CELLS/uL
- ABSOLUTE SEGMENTED NEUTROPHIL [2]: 1020 CELLS/uL
- BASOPHIL [2]: 0%
- EOSINOPHIL [2]: 0.67%
- ERYTHROCYTE COUNT [2]: 5.73 x10E6/uL
- HEMATOCRIT [2]: 35.5%
- HEMOGLOBIN [2]: 13.43 G/DL
- LEUKOCYTE COUNT [2]: 15.23 x10E3/uL
- LYMPHOCYTE [2]: 91.33%
- MEAN CORPUSCULAR HEMOGLOBIN [2]: 23.43 pg
- MEAN CORPUSCULAR HEMOGLOBIN CONCENTRATION [2]: 37.83 G/DL
- MEAN CORPUSCULAR VOLUME [2]: 61.97 fL
- MONOCYTE [2]: 1.33%
- NEUTROPHIL [2]: 6.67%
- NUCLEATED RED BLOOD CELLS [2]: 0.33 /100WBC
- PLATELET COUNT [2]: 1361.67 x10E3/uL
- ALANINE AMINOTRANSFERASE [2]: 48 u/L
- ALBUMIN [2]: 4.23 G/DL
- ALKALINE PHOSPHATASE [2]: 407 u/L
- ASPARTATE AMINOTRANSFERASE [2]: 87 u/L
- BLOOD UREA NITROGEN [2]: 18 mg/dL
- CARBON DIOXIDE [2]: 26.33 mmol/L
- CHLORIDE [2]: 107 MEQ/L
- CHOLESTEROL [2]: 76.33 mg/dL
- CREATINE PHOSPHOKINASE [2]: 445.33 u/L
- CREATININE [2]: 0.21 mg/dL
- GLUCOSE [2]: 165.33 mg/dL
- LACTATE DEHYDROGENASE [2]: 155 u/L
- LIPASE [2]: 9 u/L
- PHOSPHORUS [2]: 13.63 mg/dL
- POTASSIUM [2]: 6.07 MEQ/L
- SODIUM [2]: 145.9 MEQ/L
- TOTAL BILIRUBIN [2]: 0.17 mg/dL
- TOTAL PROTEIN [2]: 6.5 G/DL
- URIC ACID [2]: 2.07 mg/dL
- ABSOLUTE BASOPHIL [3]: 0 CELLS/uL
- ABSOLUTE EOSINOPHIL [3]: 0 CELLS/uL
- ABSOLUTE LYMPHOCYTE [3]: 8834.67 CELLS/uL
- ABSOLUTE MONOCYTE [3]: 232.67 CELLS/uL
- ABSOLUTE SEGMENTED NEUTROPHIL [3]: 799.33 CELLS/uL
- BASOPHIL [3]: 0%
- EOSINOPHIL [3]: 0%
- ERYTHROCYTE COUNT [3]: 5.53 x10E6/uL
- HEMATOCRIT [3]: 35.63%
- HEMOGLOBIN [3]: 13.37 G/DL
- LEUKOCYTE COUNT [3]: 9.87 x10E3/uL
- LYMPHOCYTE [3]: 89.67%
- MEAN CORPUSCULAR HEMOGLOBIN [3]: 24.17 pg
- MEAN CORPUSCULAR HEMOGLOBIN CONCENTRATION [3]: 37.57 G/DL
- MEAN CORPUSCULAR VOLUME [3]: 64.4 fL
- MONOCYTE [3]: 2.33%
- NEUTROPHIL [3]: 8%
- NUCLEATED RED BLOOD CELLS [3]: 0 /100WBC
- PLATELET COUNT [3]: 1043.67 x10E3/uL
- ALANINE AMINOTRANSFERASE [3]: 47 u/L
- ALBUMIN [3]: 4.5 G/DL
- ALKALINE PHOSPHATASE [3]: 362.67 u/L
- ASPARTATE AMINOTRANSFERASE [3]: 80.33 u/L
- BLOOD UREA NITROGEN [3]: 15.33 mg/dL
- CARBON DIOXIDE [3]: 28 mmol/L
- CHLORIDE [3]: 106 MEQ/L
- CHOLESTEROL [3]: 89.33 mg/dL
- CREATINE PHOSPHOKINASE [3]: 226.67 u/L
- CREATININE [3]: 0.24 mg/dL
- GLUCOSE [3]: 123 mg/dL
- LACTATE DEHYDROGENASE [3]: 186 u/L
- LIPASE [3]: 9.33 u/L
- PHOSPHORUS [3]: 11.47 mg/dL
- POTASSIUM [3]: 6.78 MEQ/L
- SODIUM [3]: 150.07 MEQ/L
- TOTAL BILIRUBIN [3]: 0.3 mg/dL
- TOTAL PROTEIN [3]: 6.13 G/DL
- URIC ACID [3]: 1 mg/dL
- ABSOLUTE BASOPHIL [4]: 0 CELLS/uL
- ABSOLUTE EOSINOPHIL [4]: 57.67 CELLS/uL
- ABSOLUTE LYMPHOCYTE [4]: 15287.67 CELLS/uL
- ABSOLUTE MONOCYTE [4]: 50.33 CELLS/uL
- ABSOLUTE SEGMENTED NEUTROPHIL [4]: 2437.67 CELLS/uL
- BASOPHIL [4]: 0%
- EOSINOPHIL [4]: 0.33%
- ERYTHROCYTE COUNT [4]: 5.86 x10E6/uL
- HEMATOCRIT [4]: 35.6%
- HEMOGLOBIN [4]: 13.2 G/DL
- LEUKOCYTE COUNT [4]: 17.83 x10E3/uL
- LYMPHOCYTE [4]: 85%
- MEAN CORPUSCULAR HEMOGLOBIN [4]: 22.53 pg
- MEAN CORPUSCULAR HEMOGLOBIN CONCENTRATION [4]: 37.07 G/DL
- MEAN CORPUSCULAR VOLUME [4]: 60.8 fL
- MONOCYTE [4]: 0.33%
- NEUTROPHIL [4]: 14.33%
- NUCLEATED RED BLOOD CELLS [4]: 0 /100WBC
- PLATELET COUNT [4]: 1437 x10E3/uL
- ALANINE AMINOTRANSFERASE [4]: 43.33 u/L
- ALBUMIN [4]: 4.3 G/DL
- ALKALINE PHOSPHATASE [4]: 276.33 u/L
- ASPARTATE AMINOTRANSFERASE [4]: 79.67 u/L
- BLOOD UREA NITROGEN [4]: 19.33 mg/dL
- CARBON DIOXIDE [4]: 25 mmol/L
- CHLORIDE [4]: 105 MEQ/L
- CHOLESTEROL [4]: 76.67 mg/dL
- CREATINE PHOSPHOKINASE [4]: 212.67 u/L
- CREATININE [4]: 0.29 mg/dL
- GLUCOSE [4]: 152 mg/dL
- LACTATE DEHYDROGENASE [4]: 226.67 u/L
- LIPASE [4]: 8.67 u/L
- PHOSPHORUS [4]: 12.57 mg/dL
- POTASSIUM [4]: 6.85 MEQ/L
- SODIUM [4]: 146.2 MEQ/L
- TOTAL BILIRUBIN [4]: 0.13 mg/dL
- TOTAL PROTEIN [4]: 6.7 G/DL
- URIC ACID [4]: 2.17 mg/dL

Reference: ChEMBL document CHEMBL3885881, “DrugMatrix”
